Laboratory results from USRE48335E1, “Polymyxin derivatives as antimicrobial compounds” (priority 2014, dated 2020).
≈ marks a conversion by molar mass, not a printed value. Positions of bridges follow the written chain, without caps; N, C: chain ends. Non-standard residues stand in square brackets, D forms with d. Residues, ends and D or L forms follow the SMILES beside them. *: point of attachment. Benzoyl(3-CF3) = O=C(c1cccc(C(F)(F)F)c1)*; X12 = O=C(c1ccc(C(F)(F)F)c(F)c1)*; X9 = Cc1ccc(C(=O)*)cc1C(F)(F)F; X10 = O=C(c1cc(F)cc(Cl)c1)*; X11 = Cc1ccc(C(=O)*)cc1Cl; Dab = NCC[C@H](N)C(=O)O; Abu = CC[C@H](N)C(=O)O; Dap = NC[C@H](N)C(=O)O

What was measured:
Enterobacter cloacae = test system: Enterobacter cloacae
Procedure, shortened: (§1)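 Lipopeptides, as trifluoroacetate salts, tested for MIC in CAMHB by CLSI broth microdilution, with polymyxin B (sulphate) as comparator.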

Klebsiella pneumoniae = test system: Klebsiella pneumoniae
Procedure, shortened: as §1

Pseudomonas aeruginosa = test system: Pseudomonas aeruginosa
Procedure, shortened: as §1

Acinetobacter baumannii = test system: Acinetobacter baumannii
Procedure, shortened: as §1

A. baumannii ATCC 19606 = experiment: In vivo efficacy in mouse blood infection model (neutropenic Swiss mice); conditions: compound, free base 4 mg/kg intravenously 2 h after inoculation, blood at 4 h
Procedure, shortened: (§2)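 Activity expressed as Δlog10 CFU/mL blood, treated minus saline control, 4 h after a single 4 mg/kg (free base) i.v. dose given 2 h post-infection. Bloodstream infection from i.v. early log-phase inoculum in Swiss mice made neutropenic by i.p. cyclophosphamide on days −4 (150 mg/kg) and −1 (100 mg/kg).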

P. aeruginosa ATCC 27853 = experiment: as above; conditions: compound, free base 4 mg/kg intravenously 2 h after inoculation, blood at 4 h
Procedure, shortened: as §2

Structure (SMILES)	Minimum inhibitory concentration, Ec FADDI-EC001 (Enterobacter cloacae) [mg/L]	Minimum inhibitory concentration, Ec FADDI-EC003 (Enterobacter cloacae) [mg/L]	Minimum inhibitory concentration, Ec FADDI-EC006 (Enterobacter cloacae) [mg/L]	MIC (Klebsiella pneumoniae) [mg/L]	MIC (Pseudomonas aeruginosa) [mg/L]	Minimum inhibitory concentration, Pa ATCC 27853 (Pseudomonas aeruginosa) [mg/L]	Minimum inhibitory concentration, Pa FADDI-PA022 (Pseudomonas aeruginosa) [mg/L]	Minimum inhibitory concentration, Pa FADDI-PA025 (Pseudomonas aeruginosa) [mg/L]	MIC (Acinetobacter baumannii) [mg/L]	Minimum inhibitory concentration, Ab A ATCC 17978 (Acinetobacter baumannii) [mg/L]	Minimum inhibitory concentration, Ab ATCC 19606 (Acinetobacter baumannii) [mg/L]	Minimum inhibitory concentration, Ab FADDI-AB034 (Acinetobacter baumannii) [mg/L]	Δ log (Treated-Control at 4 h) (A. baumannii ATCC 19606) [log10 CFU/mL]	Δ log (Treated-Control at 4 h) (P. aeruginosa ATCC 27853) [log10 CFU/mL]
CC[C@@H]1NC(=O)[C@@H](CC(C)C)NC(=O)[C@H](CCN)NC(=O)[C@@H](NC(=O)[C@H](CN)NC(=O)[C@@H](NC(=O)[C@H](CCN)NC(=O)c2ccc(C)c(Cl)c2)[C@@H](C)O)CCNC(=O)[C@H]([C@@H](C)O)NC(=O)[C@H](CCN)NC(=O)[C@H](CCN)NC1=O [Compound 105] (X11-[Dab]T[Dap][Dab][Dab][dL][Abu][Dab][Dab]T; lactam 4-C)	1 (≈ 0.877 µM)	0.5 (≈ 0.439 µM)	1 (≈ 0.877 µM)	0.25 (≈ 0.219 µM)	0.5 (≈ 0.439 µM)	0.5 (≈ 0.439 µM)	1 (≈ 0.877 µM)	2 (≈ 1.75 µM)	0.5 (≈ 0.439 µM)	0.5 (≈ 0.439 µM)	0.5 (≈ 0.439 µM)	0.25 (≈ 0.219 µM)	−1.31	−2.54
CC[C@@H]1NC(=O)[C@@H](CC(C)C)NC(=O)[C@H](CCN)NC(=O)[C@@H](NC(=O)[C@H](CN)NC(=O)[C@@H](NC(=O)[C@H](CCN)NC(=O)c2ccc(C(F)(F)F)c(F)c2)[C@@H](C)O)CCNC(=O)[C@H]([C@@H](C)O)NC(=O)[C@H](CCN)NC(=O)[C@H](CCN)NC1=O [Compound 111] (X12-[Dab]T[Dap][Dab][Dab][dL][Abu][Dab][Dab]T; lactam 4-C)	0.5 (≈ 0.425 µM)	0.25 (≈ 0.212 µM)	0.25 (≈ 0.212 µM)	0.25 (≈ 0.212 µM)	1 (≈ 0.849 µM)	0.5 (≈ 0.425 µM)	1 (≈ 0.849 µM)	1 (≈ 0.849 µM)	0.5 (≈ 0.425 µM)	0.5 (≈ 0.425 µM)	0.5 (≈ 0.425 µM)	0.25 (≈ 0.212 µM)	−1.66	−3.65
CC[C@@H]1NC(=O)[C@@H](CC(C)C)NC(=O)[C@H](CCN)NC(=O)[C@@H](NC(=O)[C@H](CN)NC(=O)[C@@H](NC(=O)[C@H](CCN)NC(=O)c2ccc(C)c(C(F)(F)F)c2)[C@@H](C)O)CCNC(=O)[C@H]([C@@H](C)O)NC(=O)[C@H](CCN)NC(=O)[C@H](CCN)NC1=O [Compound 113] (X9-[Dab]T[Dap][Dab][Dab][dL][Abu][Dab][Dab]T; lactam 4-C)	1 (≈ 0.852 µM)	0.25 (≈ 0.213 µM)	1 (≈ 0.852 µM)	0.25 (≈ 0.213 µM)	0.5 (≈ 0.426 µM)	1 (≈ 0.852 µM)	0.5 (≈ 0.426 µM)	2 (≈ 1.7 µM)	0.5 (≈ 0.426 µM)	0.25 (≈ 0.213 µM)	0.5 (≈ 0.426 µM)	0.25 (≈ 0.213 µM)	−1.60	−2.61
CC[C@@H]1NC(=O)[C@@H](CC(C)C)NC(=O)[C@H](CCN)NC(=O)[C@@H](NC(=O)[C@H](CN)NC(=O)[C@@H](NC(=O)[C@H](CCN)NC(=O)c2cc(F)cc(Cl)c2)[C@@H](C)O)CCNC(=O)[C@H]([C@@H](C)O)NC(=O)[C@H](CCN)NC(=O)[C@H](CCN)NC1=O [Compound 116] (X10-[Dab]T[Dap][Dab][Dab][dL][Abu][Dab][Dab]T; lactam 4-C)	0.25 (≈ 0.219 µM)	0.25 (≈ 0.219 µM)	0.25 (≈ 0.219 µM)	0.5 (≈ 0.437 µM)	0.5 (≈ 0.437 µM)	0.5 (≈ 0.437 µM)	0.5 (≈ 0.437 µM)	1 (≈ 0.874 µM)	0.5 (≈ 0.437 µM)	0.5 (≈ 0.437 µM)	0.5 (≈ 0.437 µM)	0.25 (≈ 0.219 µM)	−1.51	−2.81
CC[C@@H]1NC(=O)[C@@H](Cc2ccccc2)NC(=O)[C@H](CCN)NC(=O)[C@@H](NC(=O)[C@H](CN)NC(=O)[C@@H](NC(=O)[C@H](CCN)NC(=O)c2cccc(C(F)(F)F)c2)[C@@H](C)O)CCNC(=O)[C@H]([C@@H](C)O)NC(=O)[C@H](CCN)NC(=O)[C@H](CCN)NC1=O [Compound 122] ({Benzoyl(3-CF3)}-[Dab]T[Dap][Dab][Dab][dF][Abu][Dab][Dab]T; lactam 4-C)	0.5 (≈ 0.419 µM)	0.5 (≈ 0.419 µM)	0.25 (≈ 0.21 µM)	0.5 (≈ 0.419 µM)	2 (≈ 1.68 µM)	2 (≈ 1.68 µM)	2 (≈ 1.68 µM)	2 (≈ 1.68 µM)	0.5 (≈ 0.419 µM)	0.25 (≈ 0.21 µM)	0.5 (≈ 0.419 µM)	0.5 (≈ 0.419 µM)	−1.58	−3.70
